Data on seven compounds can be found in BigSolDB 2.1.

The structures appear in SMILES notation.

For this series the following is noted: 298.15 K.

As usually defined, the solubility (mole fraction) is the moles of solute divided by all moles in the saturated solution. With `c1cc2cccc3c4cccc5cccc(c(c1)c23)c54`, the solubility (mole fraction) (in acetone) is 0.000301; the solubility (mole fraction) (in acetonitrile) is 4.68e-05; the solubility (mole fraction) (in chlorobenzene) was found to be 0.00177; the solubility (mole fraction) (in chloroform) is 0.00134; the solubility (mole fraction) (in ethanol) was found to be 2.42e-05; the solubility (mole fraction) (in n-hexane) is 5.53e-05. In addition, the solubility (mole fraction) (in tetrachloromethane) was found to be 0.000444.

`c1ccc2c(c1)c1ccccc1n2-c1ccc(-c2ccc(-n3c4ccccc4c4ccccc43)cc2)cc1`: the solubility (mole fraction) was determined as 0.000153 (in acetone); 7.54e-06 (in acetonitrile); 0.00491 (in chlorobenzene); 0.0083 (in chloroform); 2.25e-06 (in ethanol); 9.41e-06 (in n-hexane). For the setting “in tetrachloromethane”, this compound came in with a solubility (mole fraction) of 0.000997.

`c1ccc2cc3ccccc3cc2c1` showed a solubility (mole fraction) (in acetone) of 0.00318; a solubility (mole fraction) (in acetonitrile) of 0.000765; a solubility (mole fraction) (in chlorobenzene) of 0.00946; a solubility (mole fraction) (in chloroform) of 0.00995; a solubility (mole fraction) (in ethanol) of 0.000428; a solubility (mole fraction) (in n-hexane) of 0.0012. The same compound yielded a solubility (mole fraction) (in tetrachloromethane) of 0.00481.

The compound `O=C(O)c1cccnc1Nc1cccc(C(F)(F)F)c1` returned a solubility (mole fraction) (in acetone) of 0.0288; a solubility (mole fraction) (in acetonitrile) of 0.00131; a solubility (mole fraction) (in chlorobenzene) of 0.000297; a solubility (mole fraction) (in chloroform) of 0.00166; a solubility (mole fraction) (in ethanol) of 0.0138; a solubility (mole fraction) (in n-hexane) of 5.35e-06. The solubility (mole fraction) (in tetrachloromethane) worked out at 7.06e-05.

As for `COc1ccc2c(c1)c(CC(=O)O)c(C)n2C(=O)c1ccc(Cl)cc1`, the solubility (mole fraction) came to 0.0234 (in acetone); 0.00239 (in acetonitrile); 0.0023 (in chlorobenzene); 0.00876 (in chloroform); 1.87e-05 (in cyclohexane); 0.00441 (in ethanol). The solubility (mole fraction) reads like this: (in ethyl acetate) 0.0111; (in ethylene glycol) 0.000509; (in isopropanol) 0.00465; (in methanol) 0.00228; (in n-heptane) 6.13e-07; (in n-hexane) 4.84e-07. The solubility (mole fraction) came to 3.31e-07 (in n-pentane), 0.00433 (in n-propanol), 4.2e-05 (in tetrachloromethane) and 0.000908 (in toluene).

`c1ccc2cc3cc4ccccc4cc3cc2c1`: the solubility (mole fraction) is, setting by setting: (in acetone) 3.27e-05; (in acetonitrile) 7.97e-06; (in chlorobenzene) 0.00014; (in chloroform) 0.000132; (in ethanol) 6.91e-06; (in n-hexane) 1.5e-05. The same compound came in with a solubility (mole fraction) (in tetrachloromethane) of 4.61e-05.

On to `c1ccc(N(c2ccc(-c3ccc(N(c4ccccc4)c4cccc5ccccc45)cc3)cc2)c2cccc3ccccc23)cc1`, for which the solubility (mole fraction) by setting is: (in acetone) 2.11e-05; (in acetonitrile) 1.56e-06; (in chlorobenzene) 0.00131; (in chloroform) 0.00268; (in ethanol) 5.59e-07; (in n-hexane) 3.15e-06. Further, for the setting “in tetrachloromethane”, the solubility (mole fraction) is 0.000234.
